Our source for the remaining binding values is patent US12275731B2, “Azaindole inhibitors of wild-type and mutant forms of LRRK2” (DANA-FARBER CANCER INSTITUTE, INC., priority 2018, dated 2025).

SMILES strings stand for the structures.

Common to all, as to assay: KinomeScan profiling
Type in all cases: binding

One experiment deals with T1, AMPK-alpha2 (Homo sapiens, UniProt P54646).
T1 construct: purchased KinomeScan®
As to conditions: AMPK-alpha2, 1 μM; read-out: % control. In a few lines: (§1)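 Compounds were screened at 1 μM in DMSO across a 468-kinase KinomeScan panel. Binding was expressed as % control, scaled between a positive control (0%) and DMSO (100%) using luminescence signal. A value under 35% counted as active.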

Another experiment deals with CDK8 (Homo sapiens, UniProt P49336). As to conditions: CDK8, 1 μM; read-out: % control. In a few lines: as §1
Sequence of CDK8 (P49336 whole entry): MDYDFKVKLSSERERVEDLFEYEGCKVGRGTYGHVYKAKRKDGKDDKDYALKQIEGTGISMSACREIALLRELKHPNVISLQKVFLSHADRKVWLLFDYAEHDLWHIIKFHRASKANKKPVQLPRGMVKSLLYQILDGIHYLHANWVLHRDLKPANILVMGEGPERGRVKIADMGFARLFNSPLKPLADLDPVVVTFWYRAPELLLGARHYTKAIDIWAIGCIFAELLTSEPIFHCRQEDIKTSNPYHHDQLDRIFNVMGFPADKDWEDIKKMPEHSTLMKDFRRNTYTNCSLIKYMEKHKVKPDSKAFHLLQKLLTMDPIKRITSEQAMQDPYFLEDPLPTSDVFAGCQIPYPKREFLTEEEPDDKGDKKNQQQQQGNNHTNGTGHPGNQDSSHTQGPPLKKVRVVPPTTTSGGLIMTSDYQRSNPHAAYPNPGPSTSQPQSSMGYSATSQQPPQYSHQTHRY
The next experiment deals with T2, GAK (Homo sapiens, UniProt O14976).
T2 sequence (O14976 1-1311): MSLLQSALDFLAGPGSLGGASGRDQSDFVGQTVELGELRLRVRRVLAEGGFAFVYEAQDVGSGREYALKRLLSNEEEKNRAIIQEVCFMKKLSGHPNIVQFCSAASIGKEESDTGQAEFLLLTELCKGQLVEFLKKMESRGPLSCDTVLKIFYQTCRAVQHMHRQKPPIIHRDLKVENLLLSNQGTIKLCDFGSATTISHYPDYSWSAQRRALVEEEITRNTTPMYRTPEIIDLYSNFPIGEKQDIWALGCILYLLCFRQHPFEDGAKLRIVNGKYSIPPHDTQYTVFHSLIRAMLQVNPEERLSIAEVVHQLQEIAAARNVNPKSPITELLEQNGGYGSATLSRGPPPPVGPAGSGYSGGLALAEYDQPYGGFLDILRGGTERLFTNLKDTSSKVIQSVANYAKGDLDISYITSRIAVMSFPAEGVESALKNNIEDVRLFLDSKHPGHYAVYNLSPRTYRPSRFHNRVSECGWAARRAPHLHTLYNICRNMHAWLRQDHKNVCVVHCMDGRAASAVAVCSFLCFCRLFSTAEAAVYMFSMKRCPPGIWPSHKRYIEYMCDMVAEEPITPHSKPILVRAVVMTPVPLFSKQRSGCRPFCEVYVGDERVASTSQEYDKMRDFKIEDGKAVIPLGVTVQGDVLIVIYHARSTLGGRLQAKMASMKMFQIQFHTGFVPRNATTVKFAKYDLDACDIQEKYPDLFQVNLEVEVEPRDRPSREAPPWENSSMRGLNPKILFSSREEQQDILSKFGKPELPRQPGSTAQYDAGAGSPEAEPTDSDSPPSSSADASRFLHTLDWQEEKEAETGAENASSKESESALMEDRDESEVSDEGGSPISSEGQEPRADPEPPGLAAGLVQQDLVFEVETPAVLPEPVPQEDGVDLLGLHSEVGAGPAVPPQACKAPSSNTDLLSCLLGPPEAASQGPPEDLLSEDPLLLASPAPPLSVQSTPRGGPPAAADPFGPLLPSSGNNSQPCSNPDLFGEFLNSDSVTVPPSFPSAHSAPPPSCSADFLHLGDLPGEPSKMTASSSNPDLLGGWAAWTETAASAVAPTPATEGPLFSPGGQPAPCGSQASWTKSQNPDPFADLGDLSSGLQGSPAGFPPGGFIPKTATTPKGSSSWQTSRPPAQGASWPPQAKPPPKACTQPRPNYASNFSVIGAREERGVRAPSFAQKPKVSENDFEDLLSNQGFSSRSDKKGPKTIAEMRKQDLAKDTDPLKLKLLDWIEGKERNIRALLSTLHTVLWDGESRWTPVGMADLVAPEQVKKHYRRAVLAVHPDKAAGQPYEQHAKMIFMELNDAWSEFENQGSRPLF
As to conditions: read-out: % control. The gist of the method:
as §1

A further experiment concerns the target T3, TAOK1 (Homo sapiens, UniProt Q7L7X3).
T3 construct: purchased KinomeScan® (panel service)
T3 sequence (Q7L7X3 1-1001): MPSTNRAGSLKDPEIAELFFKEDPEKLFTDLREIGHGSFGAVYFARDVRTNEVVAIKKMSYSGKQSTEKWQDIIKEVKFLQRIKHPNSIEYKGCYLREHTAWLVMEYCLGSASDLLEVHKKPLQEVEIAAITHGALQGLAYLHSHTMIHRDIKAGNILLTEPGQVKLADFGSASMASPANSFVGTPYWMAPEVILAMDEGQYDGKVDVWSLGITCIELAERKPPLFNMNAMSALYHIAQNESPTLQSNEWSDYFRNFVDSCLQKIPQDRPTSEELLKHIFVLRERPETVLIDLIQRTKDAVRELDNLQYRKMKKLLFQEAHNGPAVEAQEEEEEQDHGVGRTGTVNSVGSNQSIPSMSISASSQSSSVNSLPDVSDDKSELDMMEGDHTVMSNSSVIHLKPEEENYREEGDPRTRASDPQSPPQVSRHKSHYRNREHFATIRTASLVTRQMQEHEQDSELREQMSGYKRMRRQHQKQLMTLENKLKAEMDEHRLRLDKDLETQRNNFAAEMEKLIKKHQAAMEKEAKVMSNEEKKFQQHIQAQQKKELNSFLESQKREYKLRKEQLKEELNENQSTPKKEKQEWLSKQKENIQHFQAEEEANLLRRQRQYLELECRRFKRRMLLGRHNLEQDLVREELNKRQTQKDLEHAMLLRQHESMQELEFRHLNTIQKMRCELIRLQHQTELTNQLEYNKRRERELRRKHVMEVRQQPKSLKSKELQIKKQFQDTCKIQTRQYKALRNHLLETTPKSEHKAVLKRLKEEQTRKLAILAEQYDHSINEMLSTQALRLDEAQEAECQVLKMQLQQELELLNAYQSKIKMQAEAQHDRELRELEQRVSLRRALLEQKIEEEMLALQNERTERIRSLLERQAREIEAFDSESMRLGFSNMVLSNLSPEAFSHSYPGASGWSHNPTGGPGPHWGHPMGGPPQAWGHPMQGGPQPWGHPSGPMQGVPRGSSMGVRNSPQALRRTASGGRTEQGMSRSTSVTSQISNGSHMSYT
As to conditions: TAOK1, 1 μM; read-out: % control. In a few lines: as §1

The next experiment concerns the target p38-alpha (Homo sapiens, UniProt Q16539). As to conditions: read-out: % control. The gist of the method:
as §1

T1 sequence (P54646 whole entry): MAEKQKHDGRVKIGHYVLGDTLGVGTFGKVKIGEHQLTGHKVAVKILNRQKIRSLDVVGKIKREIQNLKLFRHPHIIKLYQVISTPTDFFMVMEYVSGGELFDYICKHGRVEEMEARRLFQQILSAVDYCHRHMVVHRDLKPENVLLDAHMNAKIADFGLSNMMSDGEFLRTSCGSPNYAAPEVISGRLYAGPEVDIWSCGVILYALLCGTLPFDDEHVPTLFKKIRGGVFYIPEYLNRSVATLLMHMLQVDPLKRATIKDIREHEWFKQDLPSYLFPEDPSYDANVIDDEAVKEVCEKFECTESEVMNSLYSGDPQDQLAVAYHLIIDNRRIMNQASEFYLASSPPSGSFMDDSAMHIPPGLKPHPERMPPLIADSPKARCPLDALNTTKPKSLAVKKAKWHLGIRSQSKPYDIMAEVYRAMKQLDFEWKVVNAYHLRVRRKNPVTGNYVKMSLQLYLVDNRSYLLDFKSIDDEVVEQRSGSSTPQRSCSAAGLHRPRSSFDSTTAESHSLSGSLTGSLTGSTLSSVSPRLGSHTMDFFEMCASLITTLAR
Sequence of p38-alpha (Q16539 whole entry): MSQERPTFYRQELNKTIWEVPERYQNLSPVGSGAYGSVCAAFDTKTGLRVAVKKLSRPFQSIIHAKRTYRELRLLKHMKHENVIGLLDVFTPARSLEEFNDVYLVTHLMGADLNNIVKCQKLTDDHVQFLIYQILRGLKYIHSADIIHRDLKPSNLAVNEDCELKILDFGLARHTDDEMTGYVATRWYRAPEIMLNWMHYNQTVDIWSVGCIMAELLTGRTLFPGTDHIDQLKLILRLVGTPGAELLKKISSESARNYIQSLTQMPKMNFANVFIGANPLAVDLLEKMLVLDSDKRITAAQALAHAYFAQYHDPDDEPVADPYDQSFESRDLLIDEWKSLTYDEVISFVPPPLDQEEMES

Take `CNc1c(-c2ccc(C(=O)N3CCC(N4CCOCC4)CC3)cc2)cnc2[nH]cc(Cl)c12` [Compound 96, (4-(3-chloro-4-(methylamino)-1H-pyrrolo[2,3-b]pyridin-5-yl)phenyl)(4-morpholinopiperidin-1-yl)methanone]: the remaining binding at 1 µM on AMPK-alpha2 was 66%; on CDK8 it was 82%; on GAK, 99%; at TAOK1, 96%; at p38-alpha, 92%.

Consider `O=C(c1ccc(-c2cnc3[nH]cc(Cl)c3c2NC2CCCC2)cc1)N1CCC(N2CCOCC2)CC1` [Compound 101, (4-(3-chloro-4-(cyclopentylamino)-1H-pyrrolo[2,3-b]pyridin-5-yl)phenyl)(4-morpholinopiperidin-1-yl)methanone], for which the remaining binding at 1 µM was 55% on AMPK-alpha2; 59% on CDK8; 99% on GAK; 99% at TAOK1; 100% at p38-alpha.

Regarding `CNc1c(-c2cnn([C@H]3CCN(C(C)=O)C[C@@H]3F)c2)cnc2[nH]cc(Cl)c12` [Compound 77, 1-((3S,4S)-4-(4-(3-chloro-4-(methylamino)-1H-pyrrolo[2,3-b]pyridin-5-yl)-1H-pyrazol-1-yl)-3-fluoropiperidin-1-yl)ethan-1-one], the remaining binding at 1 µM at AMPK-alpha2 turned out to be 99%; at CDK8, 100%; at GAK it was 100%; at TAOK1, 100%; on p38-alpha, 100%.
